In patent US8455688B2, “HDAC inhibitors” (Lixte Biotechnology, Inc., priority 2007, dated 2013):
≈ marks a conversion by molar mass, not a printed value. Entries after “also recorded” stand apart in the source; their conditions may differ. Read-outs that look alike come from different tables or passages of the source.

Experiments:
cell line U-87 = assay: Activity against the cell line U-87; assay type: cell-based, human; settings: potency on an equimolar basis
C. glabrata = assay: Broth dilution antifungal susceptibility testing, C. glabrata; assay type: cell-based, Candida glabrata; settings: Nakaseomyces glabratus, 50% reduction in turbidity, read-out: minimum inhibitory concentration (MIC)
Method in brief: (§1)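 Clinical isolates tested by NCCLS M27-A2 (yeasts) and M38-A (moulds) broth dilution in RPMI-1640 with glutamine, without bicarbonate, at 35° C for 24 and 48 hours. Compound dissolved in DMSO, tested at 0.125-64 μg/ml. MIC read at the first 24-hour interval with growth in the drug-free control.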

C. albicans = assay: Broth dilution antifungal susceptibility testing, C. albicans; assay type: cell-based, Candida albicans; settings: Candida albicans, 50% reduction in turbidity, read-out: minimum inhibitory concentration (MIC)
Method in brief: as §1

R. arrhizus = assay: Broth dilution antifungal susceptibility testing, R. arrhizus; assay type: cell-based, Rhizopus oryzae; settings: Rhizopus arrhizus, 80% inhibition, read-out: minimum inhibitory concentration (MIC)
Method in brief: as §1

CP Control = assay: Broth dilution antifungal susceptibility testing, CP Control; assay type: cell-based; settings: read-out: minimum inhibitory concentration (MIC)
Procedure: A total of 23 isolates were tested to include 3 Candida albicans, 3 Candida glabrata, 3 Cryptococcus neoformans, 3 Aspergillus fumigatus, 3 Rhizopus oryzae, 3, Fusarium solani, 3 Pseudallescheria boydii, and 2 […]. All isolates were clinical isolates submitted to the Fungus Testing Laboratory for evaluation. Antifungal susceptibility testing was accomplished according to the methods outlined in the National Committee for Clinical Laboratory Standards, M-27A2, Reference Method for Broth Dilution Antifungal Susceptibility Testing of Yeasts; Approved Standard, and M38-A “Reference Method for Broth Dilution Antifungal Susceptibility Testing of Conidium-Forming Filamentous Fungi; Approved Standard”. This includes testing in RPMI-1640 with glutamine and without bicarbonate, an inoculum size of 0.5-2.5×10^3 for yeasts or […] for moulds, and incubation at 35° C. for 24 and 48 hours. […] Drug concentrations were 0.125-64 μg/ml. A 10 mg portion of each powder was weighed out and added to 1 ml of 100% DMSO for compound 205. The resulting concentration of […] was diluted to a working concentration of 6400 μg/ml for compound 205 in 100% DMSO. All subsequent dilutions were also made using the respective diluents. Final testing concentrations ranged from 0.125-64 μg/ml. The NCCLS recommended medium RPMI-1640 (Hardy Diagnostics, Santa Monica, Calif.) was utilized as the test medium. All isolates in this study were clinical isolates received in the Fungus Testing Laboratory for standard antifungal susceptibility testing and/or identification. Isolates, which were not sent for identification, were confirmed to assure testing integrity. A total of 23 were tested to include 3 Candida albicans, 3 Candida glabrata, 3 Cryptococcus neoformans, 3 Aspergillus fumigatus, 3 Rhizopus oryzae, 3, Fusarium solani, 3 Pseudallescheria boydii, and 2 […]. Minimum inhibitory concentrations (MIC) were determined at the first 24-hour interval where growth could be determined in the drug-free control tube.

S. apiospermum = assay: Broth dilution antifungal susceptibility testing, S. apiospermum; assay type: cell-based, Pseudallescheria boydii; settings: Scedosporium apiospermum, 80% inhibition, read-out: minimum inhibitory concentration (MIC)
Method in brief: as §1

GBM xenograft = GBM xenograft tumor volume in SCID mice; assay type: in vivo
U87 GBM xenografts = assay: Inhibition of U87 GBM xenografts; settings: in vivo
C. neoformans = assay: Broth dilution antifungal susceptibility testing, C. neoformans; assay type: cell-based; settings: Cryptococcus neoformans, 50% reduction in turbidity, read-out: minimum inhibitory concentration (MIC)
Method in brief: as §1

A. fumigatus = assay: Broth dilution antifungal susceptibility testing, A. fumigatus; assay type: cell-based, Aspergillus fumigatus; settings: Aspergillus fumigatus, 80% inhibition, read-out: minimum inhibitory concentration (MIC)
Method in brief: as §1

T. rubrum = assay: Broth dilution antifungal susceptibility testing, T. rubrum; assay type: cell-based, Trichophyton rubrum; settings: Trichophyton rubrum, 80% inhibition, read-out: minimum inhibitory concentration (MIC)
Method in brief: as §1

F. solani = assay: Broth dilution antifungal susceptibility testing, F. solani; assay type: cell-based; settings: Fusarium solani, 80% inhibition, read-out: minimum inhibitory concentration (MIC)
Method in brief: as §1

**Q.** With `O=C(CCCCCNC(=O)c1ccccc1S)Nc1cccnc1` [Compound 205, 2-Mercapto-N-[5-(pyridin-3-ylcarbamoyl)pentyl]benzamide] as the compound, how does the “activity against the cell line U-87” value (cell line U-87) read?
**A.** The value was “most potent on an equimolar basis”.

**Q.** What about the MIC (C. glabrata; 24 h, isolate 07-2964, 24 hours) of the same compound?
**A.** Its MIC is 32 µg/mL (≈ 93.2 µM).

**Q.** And the MIC (C. glabrata; 24 h, isolate 07-2965, 24 hours)?
**A.** The MIC was 32 µg/mL (≈ 93.2 µM).

**Q.** And the MIC (C. glabrata; 24 h, isolate 07-3013, 24 hours)?
**A.** The MIC was 32 µg/mL (≈ 93.2 µM).

**Q.** What about the MIC (C. glabrata; 48 h, isolate 07-2964, 48 hours) of the same compound?
**A.** Its MIC is 64 µg/mL (≈ 186 µM).

**Q.** And the MIC (C. glabrata; 48 h, isolate 07-2965, 48 hours)?
**A.** Its MIC is 64 µg/mL (≈ 186 µM).

**Q.** And the MIC (C. glabrata; 48 h, isolate 07-3013, 48 hours)?
**A.** The MIC was 64 µg/mL (≈ 186 µM).

**Q.** And the MIC (C. albicans; 24 h, isolate 07-3006, 24 hours)?
**A.** Its MIC is 32 µg/mL (≈ 93.2 µM).

**Q.** And the MIC (C. albicans; 24 h, isolate 07-3011, 24 hours)?
**A.** The MIC was 32 µg/mL (≈ 93.2 µM).

**Q.** What about the MIC (C. albicans; 24 h, isolate 07-3012, 24 hours) of the same compound?
**A.** The MIC was 32 µg/mL (≈ 93.2 µM).

**Q.** And the MIC (C. albicans; 48 h, isolate 07-3006, 48 hours)?
**A.** The MIC was 64 µg/mL (≈ 186 µM).

**Q.** What about the MIC (C. albicans; 48 h, isolate 07-3011, 48 hours) of the same compound?
**A.** Its MIC is over 64 µg/mL.

**Q.** And the MIC (C. albicans; 48 h, isolate 07-3012, 48 hours)?
**A.** Its MIC is 64 µg/mL (≈ 186 µM).

**Q.** And the MIC (R. arrhizus; 24 h, isolate 07-1870, 24 hours)?
**A.** Its MIC is over 64 µg/mL.

**Q.** What about the MIC (R. arrhizus; 24 h, isolate 07-2044, 24 hours) of the same compound?
**A.** The MIC was 64 µg/mL (≈ 186 µM).

**Q.** And the MIC (R. arrhizus; 24 h, isolate 07-2078, 24 hours)?
**A.** The MIC was 64 µg/mL (≈ 186 µM).

**Q.** What about the MIC (R. arrhizus; 48 h, isolate 07-1870, 48 hours) of the same compound?
**A.** The MIC was over 64 µg/mL.

**Q.** And the MIC (R. arrhizus; 48 h, isolate 07-2044, 48 hours)?
**A.** Its MIC is 64 µg/mL (≈ 186 µM).

**Q.** What about the MIC (R. arrhizus; 48 h, isolate 07-2078, 48 hours) of the same compound?
**A.** The MIC was over 64 µg/mL.

**Q.** What about the MIC (CP Control; 24 hours) of the same compound?
**A.** The MIC was 32 µg/mL (≈ 93.2 µM).

**Q.** What about the MIC (CP Control; 48 hours) of the same compound?
**A.** The MIC was 32 µg/mL (≈ 93.2 µM).

**Q.** And the MIC (S. apiospermum; 24 h, isolate 07-1333, 24 hours)?
**A.** The MIC was 8 µg/mL (≈ 23.3 µM).

**Q.** What about the MIC (S. apiospermum; 24 h, isolate 07-1502, 24 hours) of the same compound?
**A.** The MIC was 32 µg/mL (≈ 93.2 µM).

**Q.** What about the MIC (S. apiospermum; 24 h, isolate 07-1601, 24 hours) of the same compound?
**A.** The MIC was 2 µg/mL (≈ 5.82 µM).

**Q.** What about the MIC (S. apiospermum; 48 h, isolate 07-1333, 48 hours) of the same compound?
**A.** The MIC was 16 µg/mL (≈ 46.6 µM).

**Q.** And the MIC (S. apiospermum; 48 h, isolate 07-1502, 48 hours)?
**A.** Its MIC is 64 µg/mL (≈ 186 µM).

**Q.** What about the MIC (S. apiospermum; 48 h, isolate 07-1601, 48 hours) of the same compound?
**A.** Its MIC is 4 µg/mL (≈ 11.6 µM).

**Q.** What about the “activity relative to an equimolar dose of SAHA” value (GBM xenograft; GBM xenograft, subcutaneous) of the same compound?
**A.** Its value is “more active than, an equimolar dose of SAHA”.

**Q.** And the “inhibition of GBM xenograft tumor volume” value (GBM xenograft; tumor cells implanted subcutaneously, 0, 7, 14, 21 and 28 days)?
**A.** Its value is “inhibited the growth of GBM xenograft tumor volume; also recorded: active”.

**Q.** And the “inhibition of U87 GBM xenografts compared to control” value (U87 GBM xenografts)?
**A.** The value was “significant inhibition”.

**Q.** What about the MIC (C. neoformans; 24 h, isolate 07-2665, 24 hours) of the same compound?
**A.** Its MIC is 32 µg/mL (≈ 93.2 µM).

**Q.** And the MIC (C. neoformans; 24 h, isolate 07-2737, 24 hours)?
**A.** The MIC was 32 µg/mL (≈ 93.2 µM).

**Q.** What about the MIC (C. neoformans; 24 h, isolate 07-2829, 24 hours) of the same compound?
**A.** The MIC was 32 µg/mL (≈ 93.2 µM).

**Q.** And the MIC (C. neoformans; 48 h, isolate 07-2665, 48 hours)?
**A.** Its MIC is 32 µg/mL (≈ 93.2 µM).

**Q.** What about the MIC (C. neoformans; 48 h, isolate 07-2737, 48 hours) of the same compound?
**A.** Its MIC is 32 µg/mL (≈ 93.2 µM).

**Q.** What about the MIC (C. neoformans; 48 h, isolate 07-2829, 48 hours) of the same compound?
**A.** The MIC was 32 µg/mL (≈ 93.2 µM).

**Q.** And the MIC (A. fumigatus; 24 h, isolate 05-388, 24 hours)?
**A.** Its MIC is 16 µg/mL (≈ 46.6 µM).

**Q.** And the MIC (A. fumigatus; 24 h, isolate 06-4126, 24 hours)?
**A.** The MIC was 16 µg/mL (≈ 46.6 µM).

**Q.** What about the MIC (A. fumigatus; 24 h, isolate 07-2039, 24 hours) of the same compound?
**A.** Its MIC is 8 µg/mL (≈ 23.3 µM).

**Q.** And the MIC (A. fumigatus; 48 h, isolate 05-388, 48 hours)?
**A.** Its MIC is over 64 µg/mL.

**Q.** And the MIC (A. fumigatus; 48 h, isolate 06-4126, 48 hours)?
**A.** The MIC was over 64 µg/mL.

**Q.** What about the MIC (A. fumigatus; 48 h, isolate 07-2039, 48 hours) of the same compound?
**A.** The MIC was over 64 µg/mL.

**Q.** What about the MIC (T. rubrum; 24 h, isolate 07-1743, 24 hours) of the same compound?
**A.** The MIC was 16 µg/mL (≈ 46.6 µM).

**Q.** What about the MIC (T. rubrum; 24 h, isolate 07-2055, 24 hours) of the same compound?
**A.** Its MIC is 8 µg/mL (≈ 23.3 µM).

**Q.** And the MIC (T. rubrum; 48 h, isolate 07-1743, 48 hours)?
**A.** Its MIC is 32 µg/mL (≈ 93.2 µM).

**Q.** And the MIC (T. rubrum; 48 h, isolate 07-2055, 48 hours)?
**A.** The MIC was 16 µg/mL (≈ 46.6 µM).

**Q.** What about the MIC (F. solani; 24 h, isolate 07-1399, 24 hours) of the same compound?
**A.** Its MIC is 64 µg/mL (≈ 186 µM).

**Q.** What about the MIC (F. solani; 24 h, isolate 07-1755, 24 hours) of the same compound?
**A.** The MIC was over 64 µg/mL.

**Q.** What about the MIC (F. solani; 24 h, isolate 07-1867, 24 hours) of the same compound?
**A.** Its MIC is 32 µg/mL (≈ 93.2 µM).

**Q.** And the MIC (F. solani; 48 h, isolate 07-1399, 48 hours)?
**A.** The MIC was over 64 µg/mL.

**Q.** What about the MIC (F. solani; 48 h, isolate 07-1755, 48 hours) of the same compound?
**A.** The MIC was over 64 µg/mL.

**Q.** What about the MIC (F. solani; 48 h, isolate 07-1867, 48 hours) of the same compound?
**A.** The MIC was 64 µg/mL (≈ 186 µM).
